According to patent US20210198277A1, “AMINE-SUBSTITUTED ARYL OR HETEROARYL COMPOUNDS” (Epizyme, Inc., priority 2016, published 2021):

target: T1, EHMT2 (Homo sapiens, UniProt Q96KQ7); test: MDA-MB-231 H3K9me2 in-cell Western assay (EHMT2 ICW); format: cell-based; details: H3K9me2 in-cell Western, MDA-MB-231 cells; read-out: EHMT2 ICW (IC50 μM)
T1 construct: host or cells: MDA-MB-231
T1 sequence (Q96KQ7 1-1210): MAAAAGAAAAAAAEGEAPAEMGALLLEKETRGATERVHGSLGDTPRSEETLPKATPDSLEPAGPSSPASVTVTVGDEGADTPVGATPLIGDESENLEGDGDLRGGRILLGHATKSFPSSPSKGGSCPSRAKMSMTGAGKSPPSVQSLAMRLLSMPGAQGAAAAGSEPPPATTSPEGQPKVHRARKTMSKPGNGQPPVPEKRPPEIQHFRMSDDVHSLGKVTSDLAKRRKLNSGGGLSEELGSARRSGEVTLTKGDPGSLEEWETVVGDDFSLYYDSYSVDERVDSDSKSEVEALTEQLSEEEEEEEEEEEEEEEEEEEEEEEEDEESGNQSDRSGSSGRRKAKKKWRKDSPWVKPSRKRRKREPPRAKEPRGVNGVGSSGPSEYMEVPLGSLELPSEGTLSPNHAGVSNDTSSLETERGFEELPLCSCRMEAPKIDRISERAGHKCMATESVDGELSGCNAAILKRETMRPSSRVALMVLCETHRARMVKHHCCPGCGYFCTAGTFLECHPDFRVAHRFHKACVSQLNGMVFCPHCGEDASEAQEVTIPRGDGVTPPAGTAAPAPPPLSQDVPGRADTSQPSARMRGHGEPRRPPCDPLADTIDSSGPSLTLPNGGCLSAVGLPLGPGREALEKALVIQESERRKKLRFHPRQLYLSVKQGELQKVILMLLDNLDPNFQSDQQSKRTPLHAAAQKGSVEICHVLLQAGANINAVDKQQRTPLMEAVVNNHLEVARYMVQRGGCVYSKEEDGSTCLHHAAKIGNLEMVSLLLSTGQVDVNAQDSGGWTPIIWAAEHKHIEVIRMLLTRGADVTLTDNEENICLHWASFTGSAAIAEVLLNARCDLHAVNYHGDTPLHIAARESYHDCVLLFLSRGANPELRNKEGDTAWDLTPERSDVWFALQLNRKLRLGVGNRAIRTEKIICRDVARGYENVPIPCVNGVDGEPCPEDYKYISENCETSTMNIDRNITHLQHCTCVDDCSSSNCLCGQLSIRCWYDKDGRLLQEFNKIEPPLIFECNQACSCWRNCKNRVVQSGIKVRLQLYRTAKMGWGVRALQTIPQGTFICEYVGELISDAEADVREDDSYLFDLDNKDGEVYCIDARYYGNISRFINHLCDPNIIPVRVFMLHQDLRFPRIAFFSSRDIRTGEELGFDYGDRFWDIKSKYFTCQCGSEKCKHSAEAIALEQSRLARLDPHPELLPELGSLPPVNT
Summary of the method: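 MDA-MB-231 cells (3,000/well) were exposed to compound for 30 min at room temperature and then 48 h at 37 °C, fixed with paraformaldehyde, and stained with anti-H3K9me2 (800 nm) plus DRAQ5 (700 nm). Per-well channel ratios gave percent inhibition, and IC50 came from a four-parameter fit of triplicate wells.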

Compound | IC50
CNc1ccnc(Nc2ccc(OC)c(OCCOC3CC3)c2)n1 [Compound 453, N^2-(3-(2-cyclopropoxyethoxy)-4-methoxyphenyl)-N^4-methylpyrimidine-2,4-diamine] | > 10 µM
CNc1cc(C)nc(Nc2ccc(OC)c(OC3CCN(C)CC3)c2)n1 [Compound 455] | > 10 µM
CNc1cc(C)nc(Nc2ccc(OC)c(OCC3CCN(C4CCCC4)C3)c2)n1 (stereo not drawn) [Compound 456, N^2-(3-((1-cyclopentylpyrrolidin-3-yl)methoxy)-4-methoxyphenyl)-N^4,6-dimethylpyrimidine-2,4-diamine] | > 10 µM
CNc1cc(C2CCCC2)nc(Nc2ccc(OC)c(OCCCN3CCCC3)c2)n1 [Compound 458, 6-cyclopentyl-N^2-(4-methoxy-3-(3-(pyrrolidin-1-yl)propoxy)phenyl)-N^4-methylpyrimidine-2,4-diamine] | 1 to 10 µM
CNc1cc(C2CCOCC2)nc(Nc2ccc(OC)c(OCCCN3CCCC3)c2)n1 [Compound 459, N^2-(4-methoxy-3-(3-(pyrrolidin-1-yl)propoxy)phenyl)-N^4-methyl-6-(tetrahydro-2H-pyran-4-yl)pyrimidine-2,4-diamine] | > 10 µM
COc1cnc(Nc2nc(C)cc3[nH]ncc23)cc1OCCCN1CCCC1 [Compound 460, N-(5-methoxy-4-(3-(pyrrolidin-1-yl)propoxy)pyridine-2-yl)-6-methyl-1H-pyrazolo[4,3-c]pyridine-4-amine] | 0.1 to 1 µM
COc1ccc(Nc2nc(C)cc(NCC3CCOCC3)n2)cc1OCC1CCN(C2CC2)C1 (stereo not drawn) [Compound 462, N^2-(3-((1-cyclopropylpyrrolidin-3-yl)methoxy)-4-methoxyphenyl)-6-methyl-N^4-((tetrahydro-2H-pyran-4-yl)methyl)pyrimidine-2,4-diamine] | 0.1 to 1 µM
COc1cnc(Nc2cc(NCC3CCOCC3)cc(C)n2)cc1OCCCN1CCCC1 [Compound 464, N^2-(5-methoxy-4-(3-(pyrrolidin-1-yl)propoxy)pyridin-2-yl)-6-methyl-N^4-((tetrahydro-2H-pyran-4-yl)methyl)pyridine-2,4-diamine] | 1 to 10 µM
CNc1cc(C)nc(Nc2ccc(OC)c(OC3CCN(C4CC4)CC3)c2)n1 [Compound 466, N^2-(3-((1-cyclopropylpiperidin-4-yl)oxy)-4-methoxyphenyl)-N^4,6-dimethylpyrimidine-2,4-diamine] | > 10 µM
CCn1nc(Nc2nccc3[nH]ccc23)cc1COCCN1CCCC1 [Compound 471] | > 10 µM
CNc1cc(Nc2cc(OC[C@@H]3CCN(C)C3)c(OC)cn2)nc(C)n1 [Compound 473] | 1 to 10 µM
CNc1cc(C)nc(Nc2cc(OC[C@@H]3CCN(C)C3)c(OC)cn2)c1 [Compound 475] | 0.1 to 1 µM
CNc1ccnc(Nc2ccc(OC)c(OCc3nnc(C4CC4)[nH]3)c2)n1 [Compound 478] | > 10 µM
CNc1ccnc(Nc2ccc(OC)c(OCc3ncn(C4CC4)n3)c2)n1 [Compound 480] | > 10 µM
CNc1cc(C(C)C)nc(Nc2ccc(OC)c(OCCCN3CCCC3)c2)n1 [Compound 483] | 0.1 to 1 µM
COc1cnc(Nc2nc(C)cc3[nH]c(C)cc23)cc1OCCCN1CCCC1 [Compound 485] | 0.1 to 1 µM
COc1ccc(Nc2nc(C)cc3[nH]ccc23)cc1OCCCN1CCCC1 [Compound 486] | > 10 µM
CNc1cc(C)nc(Nc2ccc(OC)c([C@H]3C[C@@H]3CN(C)C)c2)n1 [Compound 487] | 1 to 10 µM
CNc1cc(C)nc(Nc2ccc(OC)c([C@H]3C[C@H]3CN(C)C)c2)n1 [Compound 488] | 0.1 to 1 µM
CNc1cc(C)nc(Nc2ccc(OC)c(OC(C#N)CCN3CCCC3)c2)n1 (stereo not drawn) [Compound 489] | 1 to 10 µM
COc1cnc(Nc2nc(C)cc3[nH]ccc23)cc1OCC1CCN(C2CC2)C1 (stereo not drawn) [Compound 494] | < 0.1 µM
COc1cnc(Nc2nc(C)cc3[nH]ccc23)cc1OC[C@H]1CCN(C2CC2)C1 [Compound 494a] | 0.1 to 1 µM
COc1cnc(Nc2nc(C)cc3[nH]ccc23)cc1OC[C@@H]1CCN(C2CC2)C1 [Compound 495] | 0.1 to 1 µM
CNc1cc(C)nc(Nc2cc(Cl)c(OC)c(OCCCN3CCCC3)c2)n1 [Compound 496] | 1 to 10 µM
CCc1ccc(Nc2nc(C)cc(NC)n2)cc1OCCCN1CCCC1 [Compound 497] | 0.1 to 1 µM
CNc1cc(C)nc(Nc2ccc(OC)c(OCCCN3CCC4(CC4)C3)c2)n1 [Compound 498, N^2-(3-(3-(5-azaspiro[2.4]heptan-5-yl)propoxy)-4-methoxyphenyl)-N^4,6-dimethylpyrimidine-2,4-diamine] | 1 to 10 µM
CNc1cc(C)nc(Nc2ccc(OC)c(OCCCCN(C)C)c2)n1 [Compound 502] | 1 to 10 µM
CNc1cc(C)nc(Nc2ccc(OC)c(OCCCN3CCCC3C)c2)n1 (stereo not drawn) [Compound 504, N^2-(4-methoxy-3-(3-(2-methylpyrrolidin-1-yl)propoxy)phenyl)-N^4,6-dimethylpyrimidine-2,4-diamine] | 0.1 to 1 µM
COc1cnc(Nc2nccc3[nH]ccc23)cc1OCCCN1CC2CC2C1 (stereo not drawn) [Compound 507] | 0.1 to 1 µM
CNc1cc(Nc2cc(OCCCN3CC4CC4C3)c(OC)cn2)nc(C)c1F (stereo not drawn) [Compound 509] | 0.1 to 1 µM

Second part, the compound after the results:

IC50 | Compound
< 0.1 µM | CNc1cc(C)nc(Nc2ccc(OC)c(OC[C@@H]3CCN(C4CC4)C3)c2)n1 (single isomer, unassigned) [Compound 481]
1 to 10 µM | CNc1cc(C)nc(Nc2ccc(OC)c(OC[C@H]3CCN(C4CC4)C3)c2)n1 (single isomer, unassigned) [Compound 482]
< 0.1 µM | CNc1cc(C)nc(Nc2ccc(OC)c(OCC3CCN(C4CC4)C3)c2)n1 (stereo not drawn) [Compound 457]
0.1 to 1 µM | CNc1cc(C)nc(Nc2ccc(OC)c(OCC3CCN(CCO)C3)c2)n1 (stereo not drawn) [Compound 461, 2-(3-((2-methoxy-5-((4-methyl-6-(methylamino)pyrimidin-2-yl)amino)phenoxy)methyl)pyrrolidin-1-yl)ethan-1-ol]
0.1 to 1 µM | CNc1cc(C)nc(Nc2ccc(OC)c(OCCCN(C)C3CC3)c2)n1 [Compound 463, N^2-(3-(3-(cyclopropyl(methyl)amino)propoxy)-4-methoxyphenyl)-N^4,6-dimethylpyrimidine-2,4-diamine]
0.1 to 1 µM | CNc1cc(C)nc(Nc2ccc(OC)c(OCCCN3CC(O)C3)c2)n1 [Compound 465, 1-(3-(2-methoxy-5-((4-methyl-6-(methylamino)pyrimidin-2-yl)amino)phenoxy)propyl)azetidin-3-ol]
1 to 10 µM | CNc1cc(C)nc(Nc2ccc(OC)c(OC[C@H]3C[C@@H](N(C)C)C3)c2)n1 [Compound 468]
> 10 µM | CNc1cc(C)nc(Nc2ccc(OC)c(OC[C@H]3C[C@H](N(C)C)C3)c2)n1 [Compound 470]
1 to 10 µM | CNc1ccnc(Nc2ccc(OC)c(OC[C@@H]3CN(C)C[C@@H]3C)c2)n1 [Compound 477]
< 0.1 µM | CNc1cc(C)nc(Nc2ccc(OC)c(OCCCN3CCC3)c2)n1 [Compound 490]
1 to 10 µM | CNc1cc(C)nc(Nc2ccc(OC)c(OC[C@@H]3CN(C)C[C@H]3O)c2)n1 [Compound 491]
0.1 to 1 µM | CNc1cc(C)nc(Nc2ccc(OC)c(OC[C@@H]3CN(C)C[C@@H]3O)c2)n1 [Compound 492]
1 to 10 µM | CNc1cc(C)nc(Nc2ccc(OC)c(OCCC3CCN(C)C3)c2)n1 (stereo not drawn) [Compound 503]
0.1 to 1 µM | CNc1cc(C)nc(Nc2ccc(OC)c(OCCCN3CC4CC4C3)c2)n1 (stereo not drawn) [Compound 506]
> 10 µM | CNc1cc(C)nc(Nc2ccc(OC)c(OCCC3CN(C)C3)c2)n1 [Compound 508]
